Reference: paper PMC6911004, “Fragment-based screening identifies molecules targeting the substrate-binding ankyrin repeat domains of tankyrase” (Scientific Reports, 2019)
Values after ≈ are worked out from the molar mass of the structure shown. “Also recorded” adds a separate entry of the source.

Columns and labels:
[1] = target: T1, TNKS2 ARC4 (Homo sapiens, UniProt Q9H2K2); assay: T2 relaxation-edited ligand-observed NMR assay; type: binding; conditions: for T2 relaxation-edited: competition with 3BP2 TBM peptide: 3BP2 16-mer peptide 100 μM
T1 construct: The cell was filled with TNKS2 ARC4 (488–649); His6-GST; made in house; host or cells: E. coli
T1 sequence (Q9H2K2 488-649): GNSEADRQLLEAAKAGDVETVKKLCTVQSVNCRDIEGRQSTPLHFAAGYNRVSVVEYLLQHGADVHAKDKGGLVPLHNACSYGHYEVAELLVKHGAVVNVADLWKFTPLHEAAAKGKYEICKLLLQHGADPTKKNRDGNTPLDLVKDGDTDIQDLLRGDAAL
Procedure: (§1) We next sought close structural analogues of hit fragments 3 and 5 to gain early insights into structure-activity relationships (SAR) and binding modes of hit fragments. We initially tested the analogues using both relaxation-edited and waterLOGSY NMR assays against TNKS2 ARC4 (Table 1), followed by protein-observed NMR if binding was detected in both ligand-observed NMR experiments.
Fragments were dispensed in duplicate into a 384-well plate (250 nL, 100 mM stock in DMSO). Wells were backfilled with DMSO (2.25 μL). Tankyrase ARC protein (47.5 μL in 25 mM HEPES, pH 7.5, 100 mM NaCl, 2 mM TCEP, 10% D2O; 20 μM final protein concentration in the assay) was added to the ‘protein’ samples; buffer only (47.5 μL) was added to the ‘compound-only’ samples. Solutions were transferred to 1.7 mm NMR tubes using a Gilson liquid handling system. ^1H NMR spectra were recorded, with the DMSO and water signals dampened. A relaxation spin filter was applied at 400 ms[65]. Data were processed using Bruker Topspin 3.14. Lines were broadened with LB = 3.0, and the baseline was corrected between 6.0–10.0 ppm. The average integral for all peaks between 6.0–10.0 ppm was calculated, and the difference between compound-only and compound-plus-protein samples was compared. A reduction in signal integrals of ≥15% was classified as a hit. For competitive experiments, 3BP2 16-mer peptide (100 μM) was added, and the spectra were recorded and processed as above. The variability in signal reduction in the relaxation-edited experiment was previously determined as approximately ± 10% (Liu et al., unpublished observations).

[2] = Fragment solubility assay by NMR; type: physicochemical; conditions: NMR buffer (HEPES-NaOH) with 5% DMSO, aqueous with cosolvent or surfactant or cyclodextrin, kinetic from dmso stock; NMR buffer pH 7.5, 5% DMSO, 500 μM nominal
Procedure: Fragments were dispensed into a 384-well plate (250 nL of 100 mM stock in DMSO, 500 μM final concentration) using an ECHO acoustic dispenser. DMSO (2.25 μL) was added, then NMR buffer (47.5 μL, 25 mM HEPES-NaOH pH 7.5, 100 mM NaCl, 1 mM TCEP, 10% D2O). The plate was centrifuged (1 min, 1000 × g) before the solutions were transferred to 1.7 mm NMR tubes using a Gilson liquid handling system. ^1H NMR spectra were recorded with the DMSO and water signals dampened. 100 μM caffeine was used as an external standard to quantify the ligand signals.

[3] = target: T1, TNKS2 ARC4; assay: WaterLOGSY NMR assay; type: binding; conditions: for waterLOGSY: wild-type TNKS2 ARC4 20 μM, negative NOE = binder
Procedure: as §1
Fragments were dispensed in duplicate into a 384-well plate (250 nL, 100 mM stock in DMSO). Wells were backfilled with DMSO (2.25 μL). Tankyrase ARC protein (47.5 μL in 25 mM HEPES-NaOH pH7.5, 100 mM NaCl, 2 mM TCEP, 10% D2O; 20 μM final protein concentration in the assay) was added to the samples containing protein; buffer only (47.5 μL) was added to the compound-only samples. Solutions were transferred to 1.7 mm NMR tubes using a Gilson liquid handling system. ^1H NMR spectra were recorded, with the DMSO signal dampened. The bulk water signal at 4.7 ppm was selectively inverted. Data were processed using Bruker Topspin 3.14[66].

| Compound | T2 relaxation-edited: competition with 3BP2 TBM peptide [1] | TNKS2 ARC4 binding of analogues, SAR summary in words ([1]; relaxation-edited and waterLOGSY NMR) | solubility [2] | waterLOGSY, compound alone ([3]; no protein added) | waterLOGSY [3] | waterLOGSY: competition with 3BP2 TBM peptide [3] | binding to TNKS2 ARC4 by ligand-observed NMR, in words ([1]; DSF hit validation) |
| --- | --- | --- | --- | --- | --- | --- | --- |
| O=C(NCc1ccco1)c1ccc2nccnc2c1 [compound 9] | competitive | preserved binding | 650 µM (≈ 165 µg/mL) | no NOE | one peak has negative NOE; also recorded: binding; also recorded: negative NOE signal | – | – |
| O=C(NCc1ccc(F)cc1)c1ccc2nccnc2c1 [compound 5] | competitive | – | 410 µM (≈ 115 µg/mL) | – | negative NOE; also recorded: binding | peptide competition | – |
| O=C(NCc1ccco1)c1ccc(F)cc1 [compound 3] | – | – | 220 µM (≈ 48.2 µg/mL) | – | negative NOE; also recorded: binding | – | bound |
